According to PMC12045974, “T cell toxicity induced by tigecycline binding to the mitochondrial ribosome” (Nature Communications, 2025):
Where “and” joins values, the source holds several entries; their conditions need not be identical. Identical values can stand only once. Like-named read-outs stand apart in the source and are kept apart here.

Experiments:
PBMCs = experiment: Cell viability assay (CCK-8), PBMCs; format: cell-based, human; conditions: 72 h
Summary of the method: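 Buffy-coat PBMCs were seeded at 15,000 cells/well in RPMI-1640 with 10% FBS, 2.05 mM L-glutamine and 55 μM 2-ME. Cells were exposed for 72 h at 37 °C, 5% CO2 to 9 concentrations, up to 300 μM for tetracyclines and up to 900 μM for other inhibitors, with DMSO controls. CCK-8 read after 4 h; IC50 from dose-response curves.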

Jurkat T cells = experiment: Cell viability assay (CCK-8), Jurkat T cells; format: cell-based, human; conditions: 72 h; for cell vialibity normalized to Vehicle (DMSO): Jurkat, Fig. 1A, in % (unit assumed)
Summary of the method: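 This CCK-8 viability assay used Jurkat T cells seeded at 6000 per well and grown in supplemented RPMI-1640, 100 μl per well. Antibiotic stocks in DMSO were diluted in medium to give 9 concentrations, and untreated wells received matching DMSO. After treatment, cells were incubated with 10% CCK-8 for 3 h. Results were normalized to vehicle, technical repeats were plotted as mean ± SEM, and IC50 values were derived.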

HeLa cells = experiment: Cell viability assay (CCK-8), HeLa cells; format: cell-based; conditions: 10 μM
Summary of the method: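 Viability of HeLa cells was measured with Cell Counting Kit-8 after treatment with drug dilutions in 96-well plates (2000 cells/well, DMEM plus 10% FBS and 2.05 mM L-glutamine, humidified 37 °C, 5% CO2). Untreated wells received equal DMSO. After 1 h CCK-8 incubation, technical-repeat dose-response curves were plotted and IC50 values calculated in GraphPad Prism.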

[1] = tested on: mitochondrial translation; experiment: 35S metabolic labeling, de novo mitochondrial translation assay in Jurkat T cells; format: cell-based, human; conditions: 5 μM, 18 h of treatment
Protocol: Jurkat T cells were seeded in 6-well plates at a density of 1 million cells/ml and cultured with different concentrations of antibiotics for 18 h in RPMI-1640 medium (with 10% FBS, 2.05 mM L-glutamine (Sigma), and 55 μM 2-ME (Gibco)). After centrifugation, cells were incubated twice for 5 min at 37 °C in Cys-/Met-free medium (DMEM, high glucose, no glutamine, no methionine, no cysteine, supplemented with 10% dialyzed fetal bovine serum, 1× GlutaMax, and sodium pyruvate), followed by 20 min incubation at 37 °C in Cys-/Met-free medium supplemented with 100 µg/ml emetine to inhibit cytosolic translation (only for mitochondrial translation groups). Subsequently, 1 ml Cys-/Met-free medium supplemented with 200 (for cytosolic translation) or 400 µCi (for mitochondrial translation) of EasyTag EXPRESS [^35S] protein labeling mix (methionine and cysteine) (Perkin Elmer) were added to each sample and incubated for 20 min at 37 °C, 5% CO2. Following labeling, cells were washed three times with 1 ml PBS, harvested by centrifugation (400 × g, 10 min, 4 °C), and stored at −20 °C. Cells were lysed by resuspension in 30 µl PBS supplemented with a Complete EDTA-free protease inhibitor cocktail and 50 U Benzonase nuclease (Sigma) and by application of one freeze-thaw cycle. Protein contents were determined by Pierce BCA assay (Thermo Fisher). […]

[2] = Homo sapiens, PBMC, PBMCs, Fig. 1A, read-out: cell vialibity normalized to Vehicle (DMSO)
[3] = Homo sapiens, PBMC, PBMCs, Fig. 1B, read-out: cell vialibity normalized to Vehicle (DMSO)

CN(C)c1cc(NC(=O)CNC(C)(C)C)c(O)c2c1C[C@H]1C[C@H]3[C@H](N(C)C)C(O)=C(C(N)=O)C(=O)[C@@]3(O)C(O)=C1C2=O [Tigecycline, tigecycline]
toxicity to PBMCs in comparison with other bacterial protein synthesis inhibitors (PBMCs; Fig. 1B): greatest toxicity to PBMCs | viability at 0.137174 µM (PBMCs; Homo sapiens, PBMC, PBMCs, dose 0.137174 μM, Fig. 1B, read-out: cell vialibity normalized to Vehicle (DMSO)): 103% | viability at 0.411523 µM (PBMCs; [2]): 83.9% | viability at 0.411523 µM (PBMCs; [3]): 89.9% | viability at 1.23457 µM (PBMCs; [2]): 75.3% | viability at 1.23457 µM (PBMCs; [3]): 65.1% | viability at 3.7037 µM (PBMCs; Homo sapiens, PBMC, PBMCs, dose 3.7037 μM, Fig. 1B, read-out: cell vialibity normalized to Vehicle (DMSO)): 39.4% | viability at 11.1111 µM (PBMCs; Homo sapiens, PBMC, PBMCs, dose 11.1111 μM, Fig. 1A, read-out: cell vialibity normalized to Vehicle (DMSO)): 44.2% | viability at 33.3333 µM (PBMCs; [2]): 38.8% | viability at 33.3333 µM (PBMCs; [3]): 21.2% | viability at 100 µM (PBMCs; [2]): 20.8% | viability at 100 µM (PBMCs; [3]): 17.6% | IC50 (PBMCs; Homo sapiens, PBMC, PBMCs, after 3 days of treatment, read-out: IC50 (cell survival)): 2.02 to 9.42 µM | IC50 (Jurkat T cells; Homo sapiens, Jurkat T cells, after 3 days of treatment, read-out: IC50 (cell survival)): 2.94 to 3.08 µM | cell vialibity normalized to Vehicle (DMSO) (Jurkat T cells; dose 0.0457247 μM): 109.956 and 111.249 and 111.849 | cell vialibity normalized to Vehicle (DMSO) (Jurkat T cells; dose 0.137174 μM): 103.553 and 105.77 and 101.862 | cell vialibity normalized to Vehicle (DMSO) (Jurkat T cells; dose 0.411523 μM): 97.7193 and 94.1885 and 95.1333 | cell vialibity normalized to Vehicle (DMSO) (Jurkat T cells; dose 1.23457 μM): 79.9123 and 80.3238 and 79.0851 | cell vialibity normalized to Vehicle (DMSO) (Jurkat T cells; dose 3.7037 μM): 38.8158 and 37.5675 and 38.722 | cell vialibity normalized to Vehicle (DMSO) (Jurkat T cells; dose 11.1111 μM): 18.2456 and 17.144 and 16.3775 | cell vialibity normalized to Vehicle (DMSO) (Jurkat T cells; dose 33.3333 μM): 11.1842 and 10.0457 and 10.0296 | cell vialibity normalized to Vehicle (DMSO) (Jurkat T cells; dose 100 μM): 4.123 and 3.321 and 4.232 | cell vialibity normalized to Vehicle (DMSO) (Jurkat T cells; dose 300 μM): 2.237 and 2.989 and 2.158 | HeLa cell survival (HeLa cells): relatively resistant | inhibition of mitochondrial translation [1]: inhibited mitochondrial translation
